From patent publication US9072729B2, “Method for treating fibrosis and cancer with imidazolium and imidazolinium compounds” (Agency for Science, Technology and Research, priority 2008, dated 2015) come the findings set out here.

Structures are written as SMILES.

Holding throughout (format): cell-based, human
For assay [1], the system named is caspase 3, 8 and 9 in HLE cells. The assay is described as follows: Protein extract based caspase 3/8/9 colorimetric assays. The conditions noted are these: 24 hr. How it is done:
FIG. 23. (A). […] HLE cells were grown in a T75 flask and treated with DBZIM for 24 hr. The cells were then lysed and cytoplasmic protein was collected for assaying caspase 8, 9 and 3 using kits from Biovision. The data was normalized against the vehicle control. (B). […] HLE cells were treated by DBZIM of 1.5 mM for 24 hr. Cytosolic and mitochondria protein fractions were collected using a kit from Biovision. 15 μg of each protein was resolved in 4-12% gradient PAGE-SDS gel. The target proteins were recognized by antibody of cytochrome C, and visualized by the ECL method. The membrane was stripped and probed for the α-tubulin as the loading control for cytosolic fraction and Cox4 for mitochondria fraction.
Capspase 3/8/9 activities were determined using total protein extract as starting material (Biovision Inc., CA, USA). HLE cells were cultured in T75 flask and treated with DBZIM of various concentrations. Cytosolic protein extract was collected by pelleting and lysing the cells and centrifugation to remove the debris. Capspase 3, 8 and 9 activities were assayed using the same protein extract but adding the respective substrate. Absorbance readings were taken at 405 nm using Tecan Safire II plate reader. Results were expressed as relative caspase activity by normalizing to control cells without compound treatment.

Assay [2] concerns HLE cells. The assay is described as follows: Cell cycle analysis (PI flow cytometry). The conditions noted are these: 72 h; for cells in the S phase: at respective IC-50, control 24%; for cells in the G2/M phase: at respective IC-50, control 30%; for cells in the G1 phase: at respective IC-50, control 50%. How it is done:
FIG. 37. IMSs arrest Hepatocarcinoma cells. Cells were treated with vehicle and IBN 15, IBN 19, IBN 24, IBN 25 and IBN 32 for 72 h, and cell cycle distribution was assessed by flow cytometry. A) Example FACS profiles of propidium iodide-stained control cells, and cells treated with IMSs respectively. B) % of cells in cell cycle phase C) % of cells in subG0 population. Each value is the mean±S.D. of three determinations.
To perform cell cycle distribution analysis, 4×10^5 cells were plated in 10 cm dish. The cells (70% confluence) were serum-starved for 24 h to synchronize them in the G0 phase of the cell cycle. After 24 h incubation, the cells were replaced with fresh 10% DMEM medium and then treated 60 μM of IBN-15, 90 μM of IBN-19, 90 μM of IBN-24, 30 μM of […] and 20 μM of IBN-32) and 0.045% DMSO as control for 72 h. The floating and trypsinized adherent cells were collected and washed with PBS. The cell pellets were resuspended in 1 ml of PBS and fixed by the addition of 70% ice-cold ethanol and stored at −20° C. After incubation for 24 hr, the cells were re-pelleted by centrifugation, the cells were washed once with PBS and resuspended in 0.1 mL of PBS containing 100 μg/ml of RNase and then incubated at 37° C. for 15 min. Finally, the cells were stained with 0.5 ml of PI solution (100 μg/mL in PBS) for 30 min. Cell cycle distribution was detected by a BD FACS array flow cytometer (Becton Dickinson). Cells with sub-G0 DNA were classified as apoptotic cells.
(A flow cytometer gives signals particle by particle.)

The test system of assay [3] is HLE cells. In words: Growth inhibition assay (MTT), HLE. How it is done: The effect of IMSs (IBN-15, IBN-19, IBN-24, IBN-25 and IBN-32) on the proliferative properties of p53 mutant cell line HLE was examined. The cytotoxicity activity and proliferation inhibition of IMSs in tumor cells were measured by MTT. […] The control experiments with DMSO alone (0.05% v/v) had no effect on cell proliferation. […] (Table 4) Microscopic observation on the cell cultures visually confirmed the inhibition on cell proliferation by IMSs. (FIG. 35)

In assay [4] the test system is p53 signaling pathway-associated gene expression in HLE cells. The assay is described as follows: Real-time PCR array of p53 signaling pathway-associated genes. As to conditions: 48 h; for increase of ATM gene expression vs control: IBN-19 90 uM, IBN-24 90 uM, IBN-25 40 uM. As for the experimental part:
FIG. 42. Real-Time PCR array analysis of p53 signaling pathway-associated gene expression. (A) Anti-apoptotic genes. (B) Growth inhibition gene SESN2. (C) Cell cycle check point genes. (D) Cell proliferation genes. (E) DNA repair gene ATM. The relative level of gene expression was normalized with housekeeping gene GAPDH. Values are expressed as mean±standard deviation.
Cells were seeded at a density of 4×10^5 cells per dish in 10 cm dishes. Next day, the cells were exposed to 90 uM of IBN-19, 90 uM of IBN-24, 40 uM of IBN-25 and 0.045% of DMSO (Dimethyl Sulphoxide) as the control. After 48 hrs, total RNAs were extracted from the cells using Nucleospin RNA II kit as per the manufacturer's istructions. RNA quality and yield were evaluated after spectrophotometer measurements.
The human apoptosis PCR array (RT^2 Profiler) was used to analyze mRNA levels of 84 key genes involved in apoptosis, in a 96-well format, according to the manufacturer's instructions (Super Array Bioscience). First-strand cDNA was synthesized with 1 μg of RNA by using a PCR array first strand-synthesis kit (C-03; Super array Bioscience). This kit uses reverse transcriptase (Power Script; Super array Bioscience) and a combination of random primers and oligo dT primers. The total volume of the reaction was 20 μL diluted to 100 μL. PCR reactions were performed using real-time PCR (79s00HT 96-well block with RT^2 Real-Time SYBR Green PCR master mix PA-012; Applied Biosystems Instruments 7500). The total volume of the PCR reaction was 25 μl. An equivalent of […] of RNA was applied to the PCR reaction. The thermocycler parameters were 95° C. for 10 minutes, followed by 40 cycles of 95° C. for 15 seconds and 60° C. for 1 minute. Relative changes in gene expression were calculated using the ΔΔCt (cycle threshold) method. An average of the number of cycles of the five housekeeping genes, GAPDH, Actin-β, β2m, Hprt1, and Rpl13d, was used to normalize the expression between samples. The expression data are presented as fold regulation. GAPDH gene expression levels were utilized as an internal control to normalize the data. Reported fold changes in expression are the ratios of treatment over control values.
To obtain more information on how the IMSs influence other gene expression in the HLE cells, 84 genes related to p53 signal transduction were profiled by using the RT^2 Profiler array (Super Array Bioscience) (FIG. 42A, B, C, D, E). The array includes keys genes relevant to p53, apoptosis, cell cycle, cell growth, proliferation, differentiation, and DNA repair.

As to `[Br-].c1ccc(Cn2cc[n+](Cc3ccccc3)c2)cc1` [DBZIM, 1,3-bisbenzylimidazolium bromide], in assay [1], the “caspase 3 activity” value is “dose-dependently enhanced”, the “caspase 8 activity” value is “not affected” and the “caspase 9 activity” value is given as “dose-dependently enhanced”.

Take `CC(=O)Oc1ccc(C[n+]2ccn(Cc3ccccc3)c2C)cc1.[Cl-]` [IBN-19, 1-benzyl-3-(4-acetate-benzyl)-2-methyl-imidazolium chloride]: in assay [2], the “cells in the S phase” value worked out at 19.8%, the “cells in the G2/M phase” value was determined as 23.7% and the “cells in the G1 phase” value was found to be 29%. The compound also had an IC50 in assay [3] (72 h) of 90 µM. The compound further came in with a half-inhibitory concentration (IC50) in assay [3] (120 h) of 28 µM. Also, in assay [4], the SESN2 gene expression result was “markedly induced” and the “increase of ATM gene expression vs control” value is recorded as 36 folds.

Consider `Cc1ccc(C[n+]2ccn(Cc3ccccc3)c2)cc1.[Cl-]` [IBN-24, 1-benzyl-3-(4-methylbenzyl)-imidazolium chloride], for which, in assay [2], the “cells in the S phase” value came out at 11.34%, the “cells in the G2/M phase” value is reported as 16.3% and the “cells in the G1 phase” value stood at 28.6%. For the same compound, the concentration for half-maximal inhibition (IC50) in assay [3] (Homo sapiens, 72 h) is 90 µM. In assay [3] (Homo sapiens, 120 h), this compound yielded an IC50 of 30 µM. In assay [4], the “anti-apoptotic gene BCl-2 expression” value is given as “significantly down regulated”; the “cell proliferation genes (Mcl1, Egr1, Foxo3, Jun, Mdm4, Nf1, Prm1D, Sesn1, E2f11, Prkca, Brca1)” value is “significantly down regulated”; the “increase of ATM gene expression vs control” value was 4.6 folds.

The IC50 is the concentration needed to halve the response being measured.
